Series [1] has as its target T1, 5-HT1B (Homo sapiens, UniProt P28222).
T1 construct: expressed in transfected cells
Briefly: Binding affinity at cloned human serotonin receptors.

The target in series [2] is T2, 5-HT1D (Homo sapiens, UniProt P28221).
T2 construct: expressed in transfected cells
The description is as above.

Series [3] deals with T3, 5-HT1A (Homo sapiens, UniProt P08908).
T3 construct: expressed in transfected cells
T3 sequence (P08908 1-422): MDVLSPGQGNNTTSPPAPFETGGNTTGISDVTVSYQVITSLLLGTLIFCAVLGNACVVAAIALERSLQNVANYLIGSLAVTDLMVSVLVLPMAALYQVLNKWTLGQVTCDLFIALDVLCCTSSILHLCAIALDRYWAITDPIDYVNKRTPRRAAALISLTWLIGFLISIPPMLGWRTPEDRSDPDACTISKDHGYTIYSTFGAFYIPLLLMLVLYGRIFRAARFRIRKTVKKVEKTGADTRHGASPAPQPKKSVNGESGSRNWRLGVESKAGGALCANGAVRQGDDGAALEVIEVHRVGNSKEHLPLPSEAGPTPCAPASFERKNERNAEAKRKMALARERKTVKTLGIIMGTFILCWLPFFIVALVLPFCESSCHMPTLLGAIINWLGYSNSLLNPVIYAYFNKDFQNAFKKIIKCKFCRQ
The description is as above.

The next series concerns the target T4, 5-HT1E (Homo sapiens, UniProt P28566).
T4 construct: expressed in transfected cells
The description is as above.

In series [4] the target is T5, 5-HT1F (Homo sapiens, UniProt P30939).
T5 construct: expressed in transfected cells
T5 sequence (P30939 1-366): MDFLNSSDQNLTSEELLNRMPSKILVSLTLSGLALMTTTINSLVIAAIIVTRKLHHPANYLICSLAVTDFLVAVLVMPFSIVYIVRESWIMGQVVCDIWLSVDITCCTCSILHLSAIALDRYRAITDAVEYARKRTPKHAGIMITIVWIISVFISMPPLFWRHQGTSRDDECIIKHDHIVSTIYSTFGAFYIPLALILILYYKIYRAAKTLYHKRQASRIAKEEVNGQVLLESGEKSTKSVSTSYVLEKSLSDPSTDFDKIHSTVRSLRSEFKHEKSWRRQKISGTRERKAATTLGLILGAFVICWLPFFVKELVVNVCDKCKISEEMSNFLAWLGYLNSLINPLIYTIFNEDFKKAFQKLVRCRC
Described as above.

A further series has as its target T6, 5-HT7 (Homo sapiens, UniProt P34969).
T6 construct: expressed in transfected cells
The description is as above.

Another series concerns Adult female cats. Briefly: Transvesical cystometrograms and periurethral EMG in anesthetized cats, acetic acid infusion.
The target of series [5] is T1, 5-HT1B. The series is described as follows: Functional data in cloned human serotonin receptors. The series is classed as biochemical.
In series [6] the target is T2, 5-HT1D. Described as above. The series is classed as biochemical.
The target of series [7] is T5, 5-HT1F. The description is as above. The series is classed as biochemical.
For series [8], the target named is T3, 5-HT1A. The description is as above. The series is classed as biochemical.
The mark [9] stands for this setting: vs 1-(2-p-methanesulfonamidophenylethyl)-4-(m-trifluoromethylphenyl)piperazine.
The mark [10] stands for this setting: listed as compound of formula I.
Where [11] appears, read: anesthetized cat, i.v., cumulative doses, acetic acid infusion.

T2 sequence (P28221 whole entry): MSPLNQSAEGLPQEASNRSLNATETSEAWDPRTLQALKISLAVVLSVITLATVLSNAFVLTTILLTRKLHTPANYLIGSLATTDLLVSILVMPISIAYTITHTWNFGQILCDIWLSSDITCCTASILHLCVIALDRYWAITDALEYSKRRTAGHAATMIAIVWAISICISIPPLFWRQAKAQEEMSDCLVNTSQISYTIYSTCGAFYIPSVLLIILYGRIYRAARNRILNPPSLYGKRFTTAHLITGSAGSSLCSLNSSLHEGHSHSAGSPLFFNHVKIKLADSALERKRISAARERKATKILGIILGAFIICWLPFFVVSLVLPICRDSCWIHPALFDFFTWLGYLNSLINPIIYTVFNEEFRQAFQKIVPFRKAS
T1 sequence (P28222 whole entry): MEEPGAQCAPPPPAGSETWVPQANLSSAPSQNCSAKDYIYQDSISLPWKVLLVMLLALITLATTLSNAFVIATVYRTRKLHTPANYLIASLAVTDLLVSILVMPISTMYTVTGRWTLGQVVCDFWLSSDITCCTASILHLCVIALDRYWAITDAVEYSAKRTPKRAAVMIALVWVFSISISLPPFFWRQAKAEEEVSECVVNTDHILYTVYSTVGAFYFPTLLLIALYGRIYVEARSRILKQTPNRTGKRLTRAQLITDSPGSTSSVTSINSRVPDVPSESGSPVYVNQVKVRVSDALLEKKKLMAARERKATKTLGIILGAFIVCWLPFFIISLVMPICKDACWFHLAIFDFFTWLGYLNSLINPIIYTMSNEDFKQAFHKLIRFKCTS
T4 sequence (P28566 whole entry): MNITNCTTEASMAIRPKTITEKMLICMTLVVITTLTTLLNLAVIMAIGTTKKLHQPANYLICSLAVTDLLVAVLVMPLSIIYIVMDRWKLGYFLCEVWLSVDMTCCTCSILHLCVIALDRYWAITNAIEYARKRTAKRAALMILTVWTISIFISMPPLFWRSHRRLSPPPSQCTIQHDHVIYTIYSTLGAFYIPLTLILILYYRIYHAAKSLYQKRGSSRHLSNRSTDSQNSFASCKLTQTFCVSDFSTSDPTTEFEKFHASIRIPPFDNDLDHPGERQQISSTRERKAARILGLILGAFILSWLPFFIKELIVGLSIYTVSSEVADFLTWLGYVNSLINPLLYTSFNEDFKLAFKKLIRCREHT
T6 sequence (P34969 whole entry): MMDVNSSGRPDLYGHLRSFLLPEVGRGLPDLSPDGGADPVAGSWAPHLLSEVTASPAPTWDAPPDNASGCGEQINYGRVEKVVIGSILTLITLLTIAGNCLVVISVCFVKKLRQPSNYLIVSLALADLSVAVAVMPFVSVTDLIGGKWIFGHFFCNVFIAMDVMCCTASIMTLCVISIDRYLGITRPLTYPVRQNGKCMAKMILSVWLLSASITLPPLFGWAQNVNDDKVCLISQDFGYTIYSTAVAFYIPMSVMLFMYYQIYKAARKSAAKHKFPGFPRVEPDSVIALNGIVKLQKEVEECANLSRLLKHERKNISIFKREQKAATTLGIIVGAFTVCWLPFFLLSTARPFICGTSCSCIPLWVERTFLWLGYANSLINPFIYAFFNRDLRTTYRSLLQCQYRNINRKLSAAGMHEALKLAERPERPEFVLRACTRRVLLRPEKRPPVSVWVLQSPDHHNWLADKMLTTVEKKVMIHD
Protocol for Adult female cats: Adult female cats were anesthetized with alpha chloralose (50-75 mg/kg i.v.) One catheter was inserted into the carotid artery for measuring systemic blood pressure and heart rate. A second catheter was inserted in the radial vein for administering drugs. Following a midline laparotomy, the bladder was cannulated through the dome to allow infusion of fluids and recording of intravesical pressure. The urethra remained patent to allow expulsion of fluids during reflex micturition.
Transvesical cystometrograms (CMGs) were recorded by emptying the bladder, beginning infusion (0.5 ml/min) with saline, and noting the volume at which fluid release and bladder contraction occurred (i.e. micturition). This volume is defined as bladder capacity. EMG activity was recorded from the periurethral musculature with bipolar hook electrodes placed within 0.5 cm of the urethral meatus via an intravaginal approach. After establishing bladder capacity and EMG activity under conditions of saline infusion, the infusion cannula was switched to infuse 0.5% acetic acid solution and cystometry repeated.
Following cystometry, the bladder was allowed to continuously fill, which produced rhythmic bladder contractions accompanied by fluid release. During this time of rhythmic bladder activity, vehicle or drug was administered. Within 5 minutes, the bladder was emptied; another CMG was performed, and bladder capacity and EMG activity were again measured. The bladder was then continuously filled to produce rhythmic contractions with fluid release, and the frequency of these rhythmic contractions was measured over a fifteen minute period to record drug effects on contraction frequency. This procedure was repeated with increasing doses of drug to produce a cumulative dose response curve.
All other drugs were dissolved in saline.

Usually Ki stands for the equilibrium dissociation constant of an inhibitor or competing ligand from its target. Low readings indicate a stronger hold on the target, high ones a looser hold on the target. Regarding `CS(=O)(=O)Nc1ccc(CCN2CCN(c3cccc(C(F)(F)F)c3)CC2)cc1` [1-(2-p-methanesulfonamidophenylethyl)-4-(m-trifluoromethylphenyl)piperazine, reference compound], the Ki was found to be 0.00949 µM at 5-HT1B [1], 0.0553 µM on 5-HT1D [2], 0.00345 µM at 5-HT1A [3] and 0.045 µM on 5-HT7. The “% displacement, 5-HT1E” value on 5-HT1E (@ 1000 nM) is on record as 5% @ 1000. Besides, the “% displacement, 5-HT1F” value on 5-HT1F [4] (@ 1000 nM) was found to be 14% @ 1000.

The melting point is the temperature, or range, at which the solid turns liquid. Molecule `CS(=O)(=O)Nc1cccc(CCN2CCN(c3cccc(C(F)(F)F)c3)CC2)c1.Cl` registered a melting point of 198 to 199 °C.

On to `COc1ccccc1N1CCN(CCN(C(=O)C2CCCCC2)c2ccccn2)CC1` [WAY100635, reference compound], for which the “reversal of hypotension, bradycardia, decrease in contraction frequency and increase in EMG activity induced by the compound of Formula I” value with Adult female cats (anesthetized cat, WAY100635 given after compound of Formula I) is given as “partially reversed”.

For orientation: Emax means the size of the effect at its maximum, as opposed to the concentration needed. Take `CS(=O)(=O)Nc1cccc(CCN2CCN(c3cccc(C(F)(F)F)c3)CC2)c1` [LY217101, 1-(2-m-methanesulfonamidophenylethyl)-4-(m-trifluoromethylphenyl)piperazine]: the Ki at 5-HT1B [1] worked out at 0.0017 µM; on 5-HT1D [2], 0.0012 µM; at 5-HT1A [3], 0.00095 µM; at 5-HT1E it was 3.88 µM; at 5-HT1F [4], 0.0323 µM; on 5-HT7, 0.104 µM. Moreover, at 5-HT1B [1] (setting [9]), the “fold higher affinity for the 5-HT1B receptor than the p-regioisomer” value amounted to 56 fold. Further, the “fold higher affinity for the 5-HT1D receptor than the p-regioisomer” value at 5-HT1D [2] (setting [9]) is 45 fold. Further, the values for the Emax on 5-HT1B [5], at 5-HT1D [6] and on 5-HT1F [7] were 88.2%, 93.4% and 95.5%, respectively. The “functional character at 5-HT1B” value on 5-HT1B [5] (listed as Formula 1) is “Agonist”; at 5-HT1B [5] (setting [10]), “agonist”. In addition, the “functional character at 5-HT1D” value is recorded as “Agonist” on 5-HT1D [6] (listed as Formula 1) and “agonist” on 5-HT1D [6] (setting [10]). Further, the “functional character at 5-HT1A” value on 5-HT1A [8] (listed as Formula 1) was “Agonist”; at 5-HT1A [8] (setting [10]), “agonist”. Moreover, in the series on Adult female cats (LY217101 given after WAY100635), the EMG activity result is reported as “no longer produces”. Besides, the bladder capacity entry is reported as “increase” with Adult female cats (LY217101 given after WAY100635) and “dose-dependent increases” in the series on Adult female cats (setting [11]). Besides, the bradycardia entry with Adult female cats (LY217101 given after WAY100635) is “no longer produces”; in the series on Adult female cats (anesthetized cat, i.v.) it was “induced”. For the same molecule, the “frequency of micturition contractions” value is reported as “continued to reduce” in the series with Adult female cats (LY217101 given after WAY100635) and “reduced” in the series with Adult female cats (setting [11]). The hypotension entry in the series on Adult female cats (LY217101 given after WAY100635) is listed as “no longer produces”; in the series with Adult female cats (anesthetized cat, i.v.) it was “induced”. Moreover, the “external urethral sphincter (EUS) EMG activity” value (shortened to “external urethral sphincter”) in the series on Adult female cats (setting [11]) is recorded as “increase”.

`CS(=O)(=O)Nc1cccc(CCN2CCN(c3cccc(C(F)(F)F)c3)CC2)c1.O=C(O)C(=O)O` displayed a melting point of 164 °C.

On to `CN(C)CCc1c[nH]c2ccc(C[C@H]3COC(=O)N3)cc12` [zolmitriptan, reference compound], for which, in the series with Adult female cats (setting [11]), the bladder capacity result is “dose-dependent increases”, the “external urethral sphincter” value is recorded as “increase” and the “frequency of micturition contractions” value is reported as “reduced”.

For `COc1ccc(NC(=O)c2ccc(-c3ccc(-c4noc(C)n4)cc3C)cc2)cc1N1CCN(C)CC1` [GR127935, reference compound], in the series with Adult female cats (setting [11]), the bladder capacity entry is listed as “dose-dependent increases”, the “external urethral sphincter” value was “increase” and the “frequency of micturition contractions” value is reported as “reduced”.

In the case of `COc1ccc(CNC(=O)/C=C/c2ccc3[nH]cc(CCN(C)C)c3c2)cc1` [GR46611, reference compound], in the series on Adult female cats (setting [11]), the bladder capacity entry is listed as “dose-dependent increases”, the “external urethral sphincter” value is on record as “increase” and the “frequency of micturition contractions” value is given as “reduced”.

These data come from US6864262B2, “1-(2-m-methanesulfonamidophenylethyl)-4-(m-trifluoromethylphenyl) piperazine and pharmaceutically acceptable salts and solvents thereof” (Eli Lilly and Company, priority 2000, dated 2005).
